Assay results reported in patent US8735632B2, “Compounds” (DSM IP Assets B.V., priority 2009, dated 2014).

Key:
Type in all cases: physicochemical
[1] = Solubility in C12-15 alkyl benzoate: saturation of the solvent, content in the supernatant by HPLC; settings: pure cosmetic solvent
[2] = Solubility of BMDBM/BEMT in 1:1 (w/w) mixture C12-15 alkyl benzoate/PG-UVB, stored 1 month at RT, no re-crystallization
[3] = Reduction of solvent necessary to dissolve solid UV-filter; settings: for reduction of the cosmetic solvent necessary to dissolve BMDBM: with PG-UVB 1:1
[4] = C12-15 alkyl benzoate/PG-UVB 1:1 versus C12-15 alkyl benzoate

Solubility in C12-15 alkyl benzoate [1] [wt.-%]	Δ solubility related to cosmetic solvent ([2]; C12-15 alkyl benzoate/PG-UVB 1:1)	Increase of solubility BMDBM/BEMT [2, 4]	Δ solubility [2, 4]	reduction of the cosmetic solvent necessary to dissolve BMDBM ([3]; C12-15 alkyl benzoate) [%]	reduction of the cosmetic solvent necessary to dissolve BMDBM ([3]; diisopropyl sebacate) [%]	amount of 1:1 (w/w) mixture of PG-UVB and C12-15 alkyl benzoate necessary to dissolve 0.5 g BMDBM ([3]; with PG-UVB of example 1) [g]	amount of 1:1 (w/w) mixture of PG-UVB and diisopropyl sebacate needed to dissolve 0.5 g BMDBM ([3]; with PG-UVB of example 1) [g]	Molecule
13	+13.5 wt.-%	+54%	+7 wt.-%	–	–	–	–	CCCCC(CC)COc1ccc(-c2nc(-c3ccc(OC)cc3)nc(-c3ccc(OCC(CC)CCCC)cc3O)n2)c(O)c1 (centres unmarked) [BEMT, bis-ethylhexyloxyphenol methoxyphenyl triazine]
–	–	–	–	75	65	1.5	1.4	butyl methoxydibenzoylmethane [BMDBM]
